Laboratory results from patent US9980928B2, “Hydroxy aliphatic substituted phenyl aminoalkyl ether derivatives” (PROUS INSTITUTE FOR BIOMEDICAL RESEARCH, S.A., priority 2012, dated 2018).
Entries after “also recorded” stand apart in the source; their conditions may differ.

How the values were obtained:
C57BL6 mice = assay: Maximum tolerated doses, 5 days oral administration; format: in vivo; conditions: mouse, doses up to 100 mg/kg/day during 5 days
Text: An alternative evaluation of the toxicity of the compounds of the present invention may be conducted using the method described in Branch, D. R. Exp Toxicol Pathol 2009, 61(2): 133-6 and Emmenegger, U. et al. Neoplasia 2011, 13(1): 40-8. […]

mice [1] = assay: Forced swimming test in mice; format: in vivo
Description: The antidepressant activity was determined using the forced swimming test described in Porsolt, R.-D. et al. Arch Int Pharmacodyn 1977, 229(2): 327-36.
Reduction in the duration of immobility by 50% or more relative to the control group indicates possible antidepressant activity. Also, one-way ANOVA followed by Dunnett's test was applied to compare the test compound-treated and vehicle control groups. Significance was considered to be P<0.05.

mice [2] = assay: Passive avoidance test; format: in vivo; conditions: 30 mg/kg i.p., test phase 24 hours later
Text: The passive avoidance task is a fear-aggravated test used to evaluate learning and memory in rodent models of CNS disorders. In this test, subjects learn to avoid an environment in which an aversive stimulus (such as a footshock) was previously delivered.
The animals can freely explore the light and dark compartments of the chamber and a mild footshock is delivered in one side of the compartment. Animals eventually learn to associate certain properties of the chamber with the footshock. The latency to pass the gate in order to avoid the stimulus is used as an indicator of learning and memory. The passive avoidance task is useful for evaluating the effect of novel chemical entities on learning and memory, as well as studying the mechanisms involved in cognition (Cappon, G. D. Eur J Pharmacol. 2008 579(1-3): 225-8).
A passive avoidance test with Example 2 administered i.p. at 30 mg/kg was conducted to assess the formation of recent and long-term memory (consolidation) using a negative reinforcement (0.6 mA footshock; 2 s).

p-Akt = assay: Western blot of p-Akt in mouse brain after i.p. administration; format: in vivo, mice; conditions: 30 mg/kg i.p., hippocampus, 1 hour after administration; hydrochloride
Description: Acute biochemical neuronal changes in neurotrophin and synaptic plasticity signaling after the administration of the compounds to be tested may be studied by Western blot assessment of ERK, Akt, phospholipase C (PLC), Trk-B, […] and CAMK II phosphorylation assays in the hippocampus, striatum and cortex at 1 hour post-administration.
Two groups of animals were used: C57BL control mice and mice treated by i.p. administration of a dose of 30 mg/kg of the compound to be tested diluted in saline solution or control saline (n=6 per group).
Animals were sacrificed by cervical dislocation at the corresponding time and different brain regions were dissected (frontal cortex, striatum, hippocampus, cerebellum) after […] of having administered the compounds. […] The supernatants were collected and the protein concentration was measured using the Dc protein assay kit (Bio-Rad, Hercules, Calif., USA) read in a 96-well plate. […]
After primary antibody incubation, membranes were washed with TBS-T and incubated for 1 hour at room temperature with the appropriate horseradish peroxidase-conjugated secondary antibody (1:2000; Promega, Madison, Wis., USA), and the reaction was finally visualized with the Western Blotting Luminol Reagent (Santa Cruz Biotechnology, Santa Cruz, Calif., USA). Western blot replicates were scanned and quantified using a computer-assisted densitometric analysis.

CHO cells = assay: In vitro MTT toxicity screen; format: cell-based, Chinese hamster; conditions: 10 μM, compared to positive control group (10% DMSO)
Description: The toxicity of the compounds of the present invention at a concentration of 10 μM has been explored using the tetrazolium salt (MTT) method in CHO cells. The MTT method involving conversion of MTT to colored formazan by cells serves as an indirect measurement of cell growth/cell kill, as reported by several groups (Paimela, T. et al. Mol Vis 2012; 18: 1189-96; Hansen, M. B. et al. J Immunol Methods 1989, 119(2): 203-10).
In the MTT assay, cytotoxicity is correlated with the color of MTT and is measured with a spectrophotometer at the wavelength of 570 nm. Briefly, fresh MTT solution (10 mg/mL in 1×PBS) was added (1:20 volume of medium) and the cells were incubated for 1.5 hours. The cells were lysed and purple formazan was dissolved into the solution by overnight incubation with MTT lysis buffer (20% SDS, 50% N,N-dimethylformamide, 2% acetic acid, 25 mM HCl; the volume of medium+volume of MTT salt solution).

[3] = target: T1, norepinephrine (NE) transporter (Homo sapiens, UniProt P23975); assay: Norepinephrine transporter binding radioligand inhibition ([3H]-nisoxetine); conditions: concentration 5 μM
T1 construct: expressed in transfected cells; host or cells: CHO cells
Description: The norepinephrine (NE) transporter removes NE from the synaptic cleft. The NE transporter terminates the effects of […], enabling its reuse by the presynaptic neuron. The in vitro binding of the compounds of the invention to the NE transporter and the percent inhibition of control-specific binding ([^3H]-nisoxetine in human recombinant CHO cells) is determined following the method described in Pacholczyk et al., (Nature 1991, 350(6316): 350-4.

T1 sequence (P23975 whole entry): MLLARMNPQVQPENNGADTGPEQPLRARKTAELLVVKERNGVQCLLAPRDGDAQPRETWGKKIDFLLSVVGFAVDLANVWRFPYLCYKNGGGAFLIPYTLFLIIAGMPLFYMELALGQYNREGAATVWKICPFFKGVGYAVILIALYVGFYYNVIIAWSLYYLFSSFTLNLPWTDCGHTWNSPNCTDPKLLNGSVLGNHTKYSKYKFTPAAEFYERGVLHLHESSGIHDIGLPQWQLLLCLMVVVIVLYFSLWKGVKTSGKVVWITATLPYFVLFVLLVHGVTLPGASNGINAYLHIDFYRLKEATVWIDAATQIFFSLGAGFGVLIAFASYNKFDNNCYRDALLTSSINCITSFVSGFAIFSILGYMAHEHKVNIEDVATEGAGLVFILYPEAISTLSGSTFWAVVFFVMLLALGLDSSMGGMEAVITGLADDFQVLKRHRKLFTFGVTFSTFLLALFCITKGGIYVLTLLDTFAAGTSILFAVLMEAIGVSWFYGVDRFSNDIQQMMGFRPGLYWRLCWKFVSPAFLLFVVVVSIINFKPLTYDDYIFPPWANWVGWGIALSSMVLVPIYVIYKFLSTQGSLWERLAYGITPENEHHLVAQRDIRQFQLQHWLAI

SMILES: CNCCC(Oc1ccc(CCO)cc1)c1ccccc1.Cl (single isomer, unassigned) [Example 2, 2-[4-[3-(Methylamino)-1-phenylpropoxy]phenyl]ethanol hydrochloride]
- oral toxicity, toxic effect (C57BL6 mice): did not show any toxic effect
- antidepressant activity (duration of immobility) (mice [1]; 30 mg/kg intraperitoneal, 60 minutes post-dosing): significant antidepressant activity
- antidepressant activity (duration of immobility) (mice [1]; 90 mg/kg p.o.): significant activity
- time on the platform vs saline-treated group (recent memory formation) (mice [2]): significantly longer time on the platform
- p-Akt levels (Akt phosphorylation) (p-Akt): positive significant increase; also recorded: increase in Akt phosphorylation
- cell viability (MTT) (CHO cells): 100%
- inhibition at 5 µM [3]: 95%
